The results in this text go back to patent US20220235065A1 (Epizyme, Inc., priority 2016, published 2022).

Where a name gives a salt, the structure may show the parent alone.

Assay [1] deals with H3K9me2 in MDA-MB-231 cells. In words: MDA-MB-231 H3K9me2 in-cell western assay. In kind it is cell-based. The settings on record: Homo sapiens, read-out: EHMT2 ICW (IC50 μM). From the text:
MDA-MB-231 cell line was purchased from ATCC (Manassas, Va., USA). RPMI/Glutamax medium, Penicillin-Streptomycin, Heat Inactivated Fetal Bovine Serum, and D-PBS were purchased from Life Technologies (Grand Island, N.Y., USA). Odyssey blocking buffer, 800CW goat anti-mouse IgG (H+L) antibody, and Licor Odyssey Infrared Scanner were purchased from Licor Biosciences, Lincoln, Nebr., USA. H3K9me2 mouse monoclonal antibody (Cat #1220) was purchased from Abcam (Cambridge, Mass., USA). 16% Paraformaldehyde was purchased from Electron Microscopy Sciences, Hatfield, Pa., USA). MDA-MB-231 cells were maintained in complete growth medium (RPMI supplemented with 10% v/v heat inactivated fetal bovine serum) and cultured at 37° C. under 5% CO2. UNC0638 was purchased from Sigma-Aldrich (St. Louis, Mo., USA).
General Procedure for MDA-MB-231 HEK9me2 In-Cell Western Assay.
Compound (100 nL) was added directly to 384-well cell plate. MDA-MB-231 cells (ATCC) were seeded in assay medium (RPMI/Glutamax supplemented with 10% v/v heat inactivated fetal bovine serum and 1% Penicillin/Streptomycin, Life Technologies) at a concentration of 3,000 cells per well to a Poly-D-Lysine coated 384-well cell culture plate with 50 μL per well. Plates were incubated at 37° C., 5% CO2 for 48 hours (BD Biosciences 356697). Plates were incubated at room temperature for 30 minutes and then incubated at 37° C., 5% CO2 for additional 48 hours. After the incubation, 50 μL per well of 8% paraformaldehyde (Electron Microscopy Sciences) in PBS was added to the plates and incubated at room temperature for 20 minutes. Plates were transferred to a Biotek 406 plate washer and washed 2 times with 100 μL per well of wash buffer (1×PBS containing 0.3% Triton X-100 (v/v)). Next, 60 μL per well of Odyssey blocking buffer (Licor Biosciences) was added to each plate and incubated for 1 hour at room temperature. Blocking buffer was removed and 20 μL of monoclonal primary antibody α-H3K9me2 (Abcam) diluted 1:800 in Odyssey buffer with 0.1% Tween 20 (v/v) were added and plates were incubated overnight (16 hours) at 4° C. Plates were washed 5 times with 100 μL per well of wash buffer. Next 20 μL per well of secondary antibody was added (1:500 800CW […] anti-mouse IgG (H+L) antibody (Licor Biosciences), 1:1000 DRAQ5 (Cell Signaling Technology) in Odyssey buffer with 0.1% Tween 20 (v/v)) and incubated for 1 hour at room temperature. The plates were washed 5 times with 100 μL per well wash buffer then 2 times with 100 μL per well of water. Plates were allowed to dry at room temperature then imaged on a Licor Odyssey Infrared Scanner (Licor Biosciences) which measured integrated intensity at 700 nm and 800 nm wavelengths. Both 700 and 800 channels were scanned.
% Inhibition Calculation.
First, the ratio for each well was determined by
Each plate included fourteen control wells of DMSO only treatment (Minimum Inhibition) as well as fourteen control wells (background wells) for maximum inhibition treated with control compound UNC0638 (Background wells).
The average of the ratio values for each well was calculated and used to determine the percent inhibition for each test well in the plate. Control compound was serially diluted three-fold in DMSO for a total of 10 test concentrations beginning at 1 μM. Percent inhibition was calculated as: […]
IC50 curves were generated using triplicate wells per concentration of compound. The IC50 is the concentration of compound at which measured methylation is inhibited by 50% as interpolated from the dose response curves. IC50 values were calculated using a non-linear regression (variable slope-four parameter fit model) with by the following formula
where Top is fixed at 100% and Bottom is fixed to 0%, [I]=concentration of inhibitor, IC50=half maximal inhibitory concentration and n=Hill Slope.

The target in the next assay is T1, EHMT1 (Homo sapiens, UniProt Q9H9B1).
T1 sequence (Q9H9B1 1-1298): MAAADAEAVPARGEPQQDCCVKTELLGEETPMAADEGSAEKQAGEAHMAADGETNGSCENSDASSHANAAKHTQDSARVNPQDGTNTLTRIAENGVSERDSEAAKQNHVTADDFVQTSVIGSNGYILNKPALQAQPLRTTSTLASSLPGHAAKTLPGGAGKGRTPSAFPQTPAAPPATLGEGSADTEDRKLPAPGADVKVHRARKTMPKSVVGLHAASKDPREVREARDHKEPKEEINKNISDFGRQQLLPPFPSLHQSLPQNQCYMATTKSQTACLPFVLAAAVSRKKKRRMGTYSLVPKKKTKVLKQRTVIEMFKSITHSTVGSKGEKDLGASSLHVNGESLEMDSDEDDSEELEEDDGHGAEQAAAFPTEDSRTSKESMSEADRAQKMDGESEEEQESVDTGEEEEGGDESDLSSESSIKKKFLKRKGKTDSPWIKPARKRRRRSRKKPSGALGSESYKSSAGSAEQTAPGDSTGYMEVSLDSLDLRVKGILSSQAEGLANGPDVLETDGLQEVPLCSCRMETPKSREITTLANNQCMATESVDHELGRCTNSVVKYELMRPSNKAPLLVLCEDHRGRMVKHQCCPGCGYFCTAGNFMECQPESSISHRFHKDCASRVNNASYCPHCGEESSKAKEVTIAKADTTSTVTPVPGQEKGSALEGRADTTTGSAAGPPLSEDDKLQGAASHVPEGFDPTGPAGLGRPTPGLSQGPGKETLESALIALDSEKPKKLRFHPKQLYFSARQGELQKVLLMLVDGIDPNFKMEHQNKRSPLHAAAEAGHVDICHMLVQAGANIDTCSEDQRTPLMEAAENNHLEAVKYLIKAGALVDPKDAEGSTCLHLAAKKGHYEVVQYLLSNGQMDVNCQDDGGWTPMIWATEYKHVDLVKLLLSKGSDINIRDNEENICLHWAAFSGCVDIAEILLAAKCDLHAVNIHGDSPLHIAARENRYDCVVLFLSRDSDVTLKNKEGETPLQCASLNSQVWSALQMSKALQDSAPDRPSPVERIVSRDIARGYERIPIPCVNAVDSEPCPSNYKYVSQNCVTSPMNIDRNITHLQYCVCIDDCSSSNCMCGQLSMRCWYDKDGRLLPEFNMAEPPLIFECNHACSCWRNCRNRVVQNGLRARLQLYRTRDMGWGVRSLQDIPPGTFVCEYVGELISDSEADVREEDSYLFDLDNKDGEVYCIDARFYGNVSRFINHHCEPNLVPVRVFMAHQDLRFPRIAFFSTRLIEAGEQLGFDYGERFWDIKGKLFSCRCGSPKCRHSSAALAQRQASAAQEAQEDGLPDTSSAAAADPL
In words: EHMT1 PEP (EHMT1 peptide enzyme assay). In kind it is biochemical. The settings on record: peptide substrate enzyme assay.

On to `CNc1cc(C)nc(Nc2ccc(OC)c(-c3cc(C4CC4)on3)c2)n1` [Compound 13], for which the IC50 in assay [1] fell in the range of 1 to 10 µM; on EHMT1, 0.1 to 1 µM.
For `CNc1cc(C)nc(Nc2ccc(OC)c(-n3cc(C4CC4)cn3)c2)n1` [Compound 14, 2-N-[3-(4-cyclopropyl-1H-pyrazol-1-yl)-4-methoxyphenyl]-4-N,6-dimethylpyrimidine-2,4-diamine] the same measures were 1 to 10 µM and 0.1 to 1 µM.
Take `CNc1cc(C)nc(Nc2ccc(OC)c(-n3cccn3)c2)n1` [Compound 15, 2-N-[4-methoxy-3-(1H-pyrazol-1-yl)phenyl]-4-N,6-dimethylpyrimidine-2,4-diamine; trifluoroacetic acid]: the half-maximal inhibitory concentration (IC50) (in assay [1]; against EHMT1) was over 10 µM each time.
Consider `CNc1cc(C)nc(Nc2cnc(OC)c(-n3ncc4c3CCNC4)c2)n1` [Compound 19], for which the IC50 (in assay [1]; at EHMT1) was 1 to 10 µM throughout.
On to `CNc1cc(C)nc(Nc2ccc(OC)c(-c3nnc4n3CCNC4)c2)n1` [Compound 21], for which the IC50 (in assay [1]; on EHMT1) was over 10 µM in each case.
For `CNc1cc(C)nc(Nc2ccc(OC)c(-n3cc4c(n3)CNCC4)c2)n1` [Compound 22, 2-N-(4-methoxy-3-[2H,4H,5H,6H,7H-pyrazolo[3,4-c]pyridin-2-yl]phenyl)-4-N,6-dimethylpyrimidine-2,4-diamine hydrochloride], the IC50 is over 10 µM in assay [1] and 1 to 10 µM against EHMT1.
Consider `CNc1cc(C)nc(Nc2ccc(OC)c(-n3cc(CN)cn3)c2)n1` [Compound 23, 2-N-[3-[4-(aminomethyl)-1H-pyrazol-1-yl]-4-methoxyphenyl]-4-N,6-dimethylpyrimidine-2,4-diamine; trifluoroacetic acid], for which the IC50 in assay [1] was 1 to 10 µM; at EHMT1 it was under 0.1 µM.
For `CNc1cc(C)nc(Nc2ccc(OC)c(-n3nccc3CN)c2)n1` [Compound 24] the same measures were over 10 µM and 1 to 10 µM.
In the case of `CNc1cc(C)nc(Nc2ccc(OC)c(-n3ncc4c3CCCC4)c2)n1` [Compound 26, 2-N-[4-methoxy-3-(4,5,6,7-tetrahydro-1H-indazol-1-yl)phenyl]-4-N,6-dimethylpyrimidine-2,4-diamine trifluoroacetic acid], the IC50 in assay [1] was over 10 µM; on EHMT1, 1 to 10 µM.
For `CNc1nc(Nc2ccc(OC)c(-n3cc4c(n3)CCNC4)c2)nc(C)c1F` [Compound 27, 5-fluoro-2-N-(4-methoxy-3-[2H,4H,5H,6H,7H-pyrazolo[4,3-c]pyridin-2-yl]phenyl)-4-N,6-dimethylpyrimidine-2,4-diamine trifluoroacetic acid] the same measures were 1 to 10 µM and 0.1 to 1 µM.
For `CNc1nc(Nc2ccc(OC)c(-n3ncc4c3CCNC4)c2)nc(C)c1F` [Compound 28, 5-fluoro-2-N-(4-methoxy-3-[1H,4H,5H,6H,7H-pyrazolo[4,3-c]pyridin-1-yl]phenyl)-4-N,6-dimethylpyrimidine-2,4-diamine trifluoroacetic acid] the same measures were 1 to 10 µM and 1 to 10 µM.
Consider `CNc1cc(C)nc(Nc2ccc(OC)c(-c3c(C)nc4n3CCNC4)c2)n1` [Compound 30], for which the IC50 (in assay [1]; at EHMT1) was over 10 µM each time.
Take `CNc1cc(C)nc(Nc2ccc(OC)c(-c3nnc4n3CCN(C)C4)c2)n1` [Compound 31]: the IC50 (in assay [1]; at EHMT1) was over 10 µM each time.
Consider `CNc1cc(C)nc(Nc2ccc(OC)c(-n3ncc4c3CCCN4)c2)n1` [Compound 32], for which the IC50 (in assay [1]; against EHMT1) was over 10 µM throughout.
Take `CNc1cc(C)nc(Nc2ccc(OC)c(-c3cccc4[nH]ccc34)c2)n1` [Compound 33, 2-N-[3-(1H-indol-4-yl)-4-methoxyphenyl]-4-N,6-dimethylpyrimidine-2,4-diamine hydrochloride]: the IC50 (in assay [1]; at EHMT1) was over 10 µM throughout.
For the compound `CNc1cc(C)nc(Nc2ccc(OC)c(-n3ncc4cnccc43)c2)n1` [Compound 35, 2-N-(4-methoxy-3-[1H-pyrazolo[4,3-c]pyridin-1-yl]phenyl)-4-N,6-dimethylpyrimidine-2,4-diamine; trifluoroacetic acid], the IC50 (in assay [1]; at EHMT1) was 1 to 10 µM throughout.
Regarding `CNc1cc(C)nc(Nc2ccc(OC)c(-n3ncc4ccncc43)c2)n1` [Compound 36], the IC50 in assay [1] is over 10 µM; on EHMT1 it was 1 to 10 µM.
In the case of `CNc1cc(C)nc(Nc2ccc(OC)c(-c3cccc4[nH]ncc34)c2)n1` [Compound 37, 2-N-[3-(1H-indazol-4-yl)-4-methoxyphenyl]-4-N,6-dimethylpyrimidine-2,4-diamine; trifluoroacetic acid], the IC50 (in assay [1]; against EHMT1) was over 10 µM throughout.
For `CNc1cc(C)nc(Nc2ccc(OC)c(-c3nc4cnccn4n3)c2)n1` [Compound 38], the IC50 is over 10 µM in assay [1] and 1 to 10 µM at EHMT1.
For `CNc1cc(C)nc(Nc2ccc(OC)c(-c3c(C)nc4cnccn34)c2)n1` [Compound 39] the same measures were over 10 µM and over 10 µM.
For `CCc1ccc(Nc2nc(C)cc(NC)n2)cc1C(=O)Nc1cccnc1` [Compound 244] the same measures were over 10 µM and over 10 µM.
Turning to `CNc1cc(C)nc(Nc2ccc(Cl)c(C(=O)Nc3ccnnc3)c2)n1` [Compound 245], the IC50 (in assay [1]; on EHMT1) was over 10 µM in each case.
With `CNc1cc(C)nc(Nc2ccc(Cl)c(C(=O)Nc3nccs3)c2)n1` [Compound 246], the IC50 in assay [1] fell in the range of 1 to 10 µM; against EHMT1, 0.1 to 1 µM.
For `Cc1cc(NC2CCNCC2)ncc1-c1cc2[nH]ccc2cn1` [Compound 247] the same measures were over 10 µM and 1 to 10 µM.
